Measured values from patent US20230257372A1 (CHONG KUN DANG PHARMACEUTICAL CORP., priority 2020, published 2023).
Where two headings read alike, the source gives them in different places.

Experiments:
human recombinant HDAC1 = target: T1, human recombinant HDAC1 (Homo sapiens, UniProt Q13547); assay: HDAC1 enzyme activity inhibition (HDAC Fluorimetric Drug Discovery Kit); type: biochemical; settings: read-out: HDAC1
T1 construct: purchased Enzo Life Science, Inc. BML-SE456
How it was run: (§1)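 Fluorimetric deacetylase read-out: after 30 min with Developer II following a 60 min, 30° C reaction of recombinant enzyme ([…]) with 10 μM substrate, across five-fold serial compound dilutions.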

human recombinant HDAC6 = target: T2, human recombinant HDAC6 (Homo sapiens, UniProt Q9UBN7); assay: HDAC6 enzyme activity inhibition (HDAC Fluorimetric Drug Discovery Kit); type: biochemical
T2 construct: purchased Calbiochem Inc. 382180
T2 sequence (Q9UBN7 1-1215): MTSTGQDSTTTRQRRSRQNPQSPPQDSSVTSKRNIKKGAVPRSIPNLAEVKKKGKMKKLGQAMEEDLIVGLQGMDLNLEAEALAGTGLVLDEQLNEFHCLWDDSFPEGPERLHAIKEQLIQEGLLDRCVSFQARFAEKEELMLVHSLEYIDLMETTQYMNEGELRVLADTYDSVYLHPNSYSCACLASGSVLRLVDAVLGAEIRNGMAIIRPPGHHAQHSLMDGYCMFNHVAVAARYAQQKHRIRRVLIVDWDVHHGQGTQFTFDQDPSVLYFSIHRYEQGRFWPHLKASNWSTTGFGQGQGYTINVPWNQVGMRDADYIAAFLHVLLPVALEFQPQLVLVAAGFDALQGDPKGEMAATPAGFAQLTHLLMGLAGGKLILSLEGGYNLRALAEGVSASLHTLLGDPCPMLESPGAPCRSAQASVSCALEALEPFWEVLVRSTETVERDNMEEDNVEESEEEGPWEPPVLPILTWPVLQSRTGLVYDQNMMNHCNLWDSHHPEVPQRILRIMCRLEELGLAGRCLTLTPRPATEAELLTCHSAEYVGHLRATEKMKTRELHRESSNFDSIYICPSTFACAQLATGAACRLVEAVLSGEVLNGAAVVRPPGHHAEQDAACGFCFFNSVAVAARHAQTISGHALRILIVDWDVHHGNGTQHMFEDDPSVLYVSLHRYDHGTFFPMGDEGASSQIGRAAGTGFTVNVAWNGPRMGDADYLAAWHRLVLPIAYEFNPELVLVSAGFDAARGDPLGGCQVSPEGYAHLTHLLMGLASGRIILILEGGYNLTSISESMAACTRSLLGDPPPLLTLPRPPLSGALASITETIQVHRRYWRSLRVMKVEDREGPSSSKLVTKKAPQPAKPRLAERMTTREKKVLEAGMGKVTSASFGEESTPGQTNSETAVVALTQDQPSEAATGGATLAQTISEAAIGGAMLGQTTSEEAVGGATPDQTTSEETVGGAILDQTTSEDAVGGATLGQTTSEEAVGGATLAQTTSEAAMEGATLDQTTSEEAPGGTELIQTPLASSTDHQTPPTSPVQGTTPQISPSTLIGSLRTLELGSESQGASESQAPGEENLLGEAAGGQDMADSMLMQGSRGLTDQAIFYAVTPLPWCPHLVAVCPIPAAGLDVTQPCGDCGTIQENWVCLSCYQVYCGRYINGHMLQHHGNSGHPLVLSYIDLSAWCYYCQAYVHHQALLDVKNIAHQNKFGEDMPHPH
How it was run: as §1

[1] = human recombinant HDAC1, Fluor de Lys substrate, 30° C. 60 minutes
[2] = human recombinant HDAC6, same protocol as HDAC1
[3] = human recombinant HDAC1, IC50 calculated with GraphPad Prism
[4] = human recombinant HDAC6, IC50 calculated with GraphPad Prism

T1 sequence (Q13547 whole entry): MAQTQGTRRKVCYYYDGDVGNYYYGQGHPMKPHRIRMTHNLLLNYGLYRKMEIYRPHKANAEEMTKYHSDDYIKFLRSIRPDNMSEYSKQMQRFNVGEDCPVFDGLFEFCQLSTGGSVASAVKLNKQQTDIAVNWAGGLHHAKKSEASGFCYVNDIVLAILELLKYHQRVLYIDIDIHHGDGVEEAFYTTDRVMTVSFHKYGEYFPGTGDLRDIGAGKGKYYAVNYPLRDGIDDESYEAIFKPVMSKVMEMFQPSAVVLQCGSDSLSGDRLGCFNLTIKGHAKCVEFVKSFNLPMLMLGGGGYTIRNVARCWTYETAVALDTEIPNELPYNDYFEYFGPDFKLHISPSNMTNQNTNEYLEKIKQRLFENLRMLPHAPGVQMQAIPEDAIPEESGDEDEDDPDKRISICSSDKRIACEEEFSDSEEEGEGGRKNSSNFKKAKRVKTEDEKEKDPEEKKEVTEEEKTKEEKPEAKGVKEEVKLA

Fc1cc(-c2nnc(C(F)F)o2)ccc1Cn1cc(-c2cccc(N3CCN(CC4(F)CC4)CC3)c2F)nn1 [Compound 4602, 2-(difluoromethyl)-5-(3-fluoro-4-((4-(2-fluoro-3-(4-((1-fluorocyclopropyl)methyl)piperazin-1-yl)phenyl)-1H-1,2,3-triazol-1-yl)methyl)phenyl)-1,3,4-oxadiazole]
IC50 (human recombinant HDAC1; [1]): > 50 µM | HDAC6 selectivity (fold) (human recombinant HDAC6; HDAC6 over HDAC1): 313 fold | IC50 (human recombinant HDAC6; [2]): 160 nM

Fc1cc(-c2nnc(C(F)F)o2)cnc1Cn1cc(-c2ccc(CN3CCCC3)s2)nn1 [Compound 18059, 2-(difluoromethyl)-5-(5-fluoro-6-((4-(5-(pyrrolidin-1-ylmethyl)thiophen-2-yl)-1H-1,2,3-triazol-1-yl)methyl)pyridin-3-yl)-1,3,4-oxadiazole]
IC50 (human recombinant HDAC1; [1]): > 50 µM | HDAC6 selectivity (fold) (human recombinant HDAC6; HDAC6 over HDAC1): 1295 fold | IC50 (human recombinant HDAC6; [2]): 38.6 nM

CC(C)N1Cc2cccc(-c3cn(Cc4ccc(-c5nnc(C(F)F)o5)cn4)nn3)c2C1 [Compound 4597, 2-(difluoromethyl)-5-(6-((4-(2-isopropylisoindolin-4-yl)-1H-1,2,3-triazol-1-yl)methyl)pyridin-3-yl)-1,3,4-oxadiazole]
IC50 (human recombinant HDAC1; [1]): > 50 µM | HDAC6 selectivity (fold) (human recombinant HDAC6; HDAC6 over HDAC1): 813 fold | IC50 (human recombinant HDAC6; [2]): 61.5 nM

CN1CCN(c2ccccc2-c2cn(Cc3ccc(-c4nnc(C(F)F)o4)cn3)nn2)CC1 [Compound 4106, 2-(difluoromethyl)-5-(6-((4-(2-(4-methylpiperazin-1-yl)phenyl)-1H-1,2,3-triazol-1-yl)methyl)pyridin-3-yl)-1,3,4-oxadiazole]
IC50 (human recombinant HDAC1; [3]): > 50 µM | HDAC6 selectivity (fold) (human recombinant HDAC6; HDAC1 IC50 / HDAC6 IC50): 877 fold | IC50 (human recombinant HDAC6; [4]): 57 nM

FC(F)c1nnc(-c2ccc(Cn3cc(-c4cccc5c4CN(C4CCC4)C5)nn3)nc2)o1 [Compound 4598, 2-(6-((4-(2-cyclobutylisoindolin-4-yl)-1H-1,2,3-triazol-1-yl)methyl)pyridin-3-yl)-5-(difluoromethyl)-1,3,4-oxadiazole]
IC50 (human recombinant HDAC1; [1]): > 50 µM | HDAC6 selectivity (fold) (human recombinant HDAC6; HDAC6 over HDAC1): 1108 fold | IC50 (human recombinant HDAC6; [2]): 45.1 nM

Fc1cc(-c2nnc(C(F)F)o2)ccc1Cn1cc(-c2cccc(N3CCN(C4CCC4)CC3)c2)nn1 [Compound 4376, 2-(4-((4-(3-(4-cyclobutylpiperazin-1-yl)phenyl)-1H-1,2,3-triazol-1-yl)methyl)-3-fluorophenyl)-5-(difluoromethyl)-1,3,4-oxadiazole]
IC50 (human recombinant HDAC1; [3]): > 50 µM | HDAC6 selectivity (fold) (human recombinant HDAC6; HDAC1 IC50 / HDAC6 IC50): 1094 fold | IC50 (human recombinant HDAC6; [4]): 45.7 nM

FC(F)c1nnc(-c2ccc(Cn3cc(C4(F)CCN(C5COC5)CC4)nn3)nc2)o1 [Compound 4008, 2-(difluoromethyl)-5-(6-((4-(4-fluoro-1-(oxetan-3-yl)piperidin-4-yl)-1H-1,2,3-triazol-1-yl)methyl)pyridin-3-yl)-1,3,4-oxadiazole]
IC50 (human recombinant HDAC1; [3]): > 50 µM | HDAC6 selectivity (fold) (human recombinant HDAC6; HDAC1 IC50 / HDAC6 IC50): 408 fold | IC50 (human recombinant HDAC6; [4]): 122 nM

CN(C)c1cccc(-c2cn(Cc3ccc(-c4nnc(C(F)F)o4)cc3F)nn2)c1 [Compound 3774, 3-(1-(4-(5-(difluoromethyl)-1,3,4-oxadiazol-2-yl)-2-fluorobenzyl)-1H-1,2,3-triazol-4-yl)-N,N-dimethylaniline]
IC50 (human recombinant HDAC1; [3]): > 50 µM | HDAC6 selectivity (fold) (human recombinant HDAC6; HDAC1 IC50 / HDAC6 IC50): 412 fold | IC50 (human recombinant HDAC6; [4]): 121 nM

CCN1[C@H](C)CN(c2cccc(-c3cn(Cc4ccc(-c5nnc(C(F)F)o5)cc4F)nn3)c2)C[C@@H]1C [Compound 4444]
IC50 (human recombinant HDAC1; [3]): > 50 µM | HDAC6 selectivity (fold) (human recombinant HDAC6; HDAC1 IC50 / HDAC6 IC50): 1872 fold | IC50 (human recombinant HDAC6; [4]): 26.7 nM

Fc1cc(-c2nnc(C(F)F)o2)ccc1Cn1cc(-c2cccc3c2CN(C2COC2)C3)nn1 [Compound 4538, 2-(difluoromethyl)-5-(3-fluoro-4-((4-(2-(oxetan-3-yl)isoindolin-4-yl)-1H-1,2,3-triazol-1-yl)methyl)phenyl)-1,3,4-oxadiazole]
IC50 (human recombinant HDAC1; [1]): > 50 µM | HDAC6 selectivity (fold) (human recombinant HDAC6; HDAC6 over HDAC1): 539 fold | IC50 (human recombinant HDAC6; [2]): 92.7 nM

Fc1cc(-c2nnc(C(F)F)o2)cnc1Cn1cc(-c2ccc3cc[nH]c3c2)nn1 [Compound 18918, 2-(6-((4-(1H-indol-6-yl)-1H-1,2,3-triazol-1-yl)methyl)-5-fluoropyridin-3-yl)-5-(difluoromethyl)-1,3,4-oxadiazole]
IC50 (human recombinant HDAC1; [1]): > 50 µM | HDAC6 selectivity (fold) (human recombinant HDAC6; HDAC6 over HDAC1): 1089 fold | IC50 (human recombinant HDAC6; [2]): 45.9 nM

Fc1cc(-c2nnc(C(F)F)o2)ccc1Cn1cc(-c2cccc(N3CCOCC3)c2)nn1 [Compound 4339, 4-(3-(1-(4-(5-(difluoromethyl)-1,3,4-oxadiazol-2-yl)-2-fluorobenzyl)-1H-1,2,3-triazol-4-yl)phenyl)morpholine]
IC50 (human recombinant HDAC1; [3]): > 50 µM | HDAC6 selectivity (fold) (human recombinant HDAC6; HDAC1 IC50 / HDAC6 IC50): 1623 fold | IC50 (human recombinant HDAC6; [4]): 30.8 nM

Fc1c(-c2cn(Cc3ccc(-c4nnc(C(F)F)o4)cn3)nn2)cccc1N1CCN(C2COC2)CC1 [Compound 4573, 2-(difluoromethyl)-5-(6-((4-(2-fluoro-3-(4-(oxetan-3-yl)piperazin-1-yl)phenyl)-1H-1,2,3-triazol-1-yl)methyl)pyridin-3-yl)-1,3,4-oxadiazole]
IC50 (human recombinant HDAC1; [1]): > 50 µM | HDAC6 selectivity (fold) (human recombinant HDAC6; HDAC6 over HDAC1): 2314 fold | IC50 (human recombinant HDAC6; [2]): 21.6 nM

FC(F)c1nnc(-c2ccc(Cn3cc(-c4ccccc4N4CCOCC4)nn3)nc2)o1 [Compound 4104, 4-(2-(1-((5-(5-(difluoromethyl)-1,3,4-oxadiazol-2-yl)pyridin-2-yl)methyl)-1H-1,2,3-triazol-4-yl)phenyl)morpholin]
IC50 (human recombinant HDAC1; [3]): 33 µM | HDAC6 selectivity (fold) (human recombinant HDAC6; HDAC1 IC50 / HDAC6 IC50): 500 fold | IC50 (human recombinant HDAC6; [4]): 66 nM

CC(C)(C)OC(=O)N1CCC(c2cccc(-c3cn(Cc4ccc(-c5nnc(C(F)F)o5)cn4)nn3)c2)CC1 [Compound 4001, tert-butyl 4-(3-(1-((5-(5-(difluoromethyl)-1,3,4-oxadiazol-2-yl)pyridin-2-yl)methyl)-1H-1,2,3-triazol-4-yl)phenyl)piperidin-1-carboxylate]
IC50 (human recombinant HDAC1; [3]): > 50 µM | HDAC6 selectivity (fold) (human recombinant HDAC6; HDAC1 IC50 / HDAC6 IC50): 296 fold | IC50 (human recombinant HDAC6; [4]): 169 nM

CCN1CCN(c2cccc(-c3cn(Cc4ccc(-c5nnc(C(F)F)o5)cc4F)nn3)c2F)CC1 [Compound 4577, 2-(difluoromethyl)-5-(4-((4-(3-(4-ethylpiperazin-1-yl)-2-fluorophenyl)-1H-1,2,3-triazol-1-yl)methyl)-3-fluorophenyl)-1,3,4-oxadiazole]
IC50 (human recombinant HDAC1; [1]): > 50 µM | HDAC6 selectivity (fold) (human recombinant HDAC6; HDAC6 over HDAC1): 2688 fold | IC50 (human recombinant HDAC6; [2]): 18.6 nM

FC(F)c1nnc(-c2ccc(Cn3cc(-c4cccc(CN5CCC(F)(F)CC5)c4)nn3)nc2)o1 [Compound 4401, 2-(difluoromethyl)-5-(6-((4-(3-((4,4-difluoropiperidin-1-yl)methyl)phenyl)-1H-1,2,3-triazol-1-yl)methyl)pyridin-3-yl)-1,3,4-oxadiazole]
IC50 (human recombinant HDAC1; [3]): > 50 µM | HDAC6 selectivity (fold) (human recombinant HDAC6; HDAC1 IC50 / HDAC6 IC50): 1126 fold | IC50 (human recombinant HDAC6; [4]): 44.4 nM

Fc1cc(-c2nnc(C(F)F)o2)ccc1Cn1cc(-c2ccc3cc[nH]c3c2)nn1 [Compound 4077, 2-(4-((4-(1H-indol-6-yl)-1H-1,2,3-triazol-1-yl)methyl)-3-fluorophenyl)-5-(difluoromethyl)-1,3,4-oxadiazole]
IC50 (human recombinant HDAC1; [3]): > 50 µM | HDAC6 selectivity (fold) (human recombinant HDAC6; HDAC1 IC50 / HDAC6 IC50): 591 fold | IC50 (human recombinant HDAC6; [4]): 84.5 nM

FC(F)c1nnc(-c2ccc(Cn3cc(-c4ccc(CN5CC6(COC6)C5)cc4)nn3)nc2)o1 [Compound 4561, 6-(4-(1-((5-(5-(difluoromethyl)-1,3,4-oxadiazol-2-yl)pyridin-2-yl)methyl)-1H-1,2,3-triazol-4-yl)benzyl)-2-oxa-6-azaspiro[3.3]heptane]
IC50 (human recombinant HDAC1; [1]): > 50 µM | HDAC6 selectivity (fold) (human recombinant HDAC6; HDAC6 over HDAC1): 3571 fold | IC50 (human recombinant HDAC6; [2]): 14 nM
